Literature values, collected in US6440947B1, “Method for treating occlusive peripheral vascular disease and coronary disease” (The Regents of the University of California, priority 1997, dated 2002).

Key:
[1] = test system: human umbilical vein endothelial cell cultures; conditions: physiological concentrations

- half-life in vivo: less than 30 seconds
Compound: Nc1ncnc2c1ncn2[C@@H]1O[C@H](CO)[C@@H](O)[C@H]1O [Adenosine, adenosine]
- effect on endothelial cell proliferation [1]: stimulates proliferation
